tested on: HCV subgenomic replication; experiment: Cell based HCV replication assay (subgenomic replicon in Huh-7 cells, NS3 Cell-ELISA); settings: Hepatitis C virus, Huh-7; Table 5, various macrocycles; activity ranges; read-out: IC50* (nM), Inhibition of HCV subgenomic replication
Source text: Cell clones that stably maintain subgenomic HCV replicon were obtained by transfecting Huh-7 cells with an RNA replicon identical to I377neo/NS3-3′/wt described by Lohmann et al. (1999) (EMBL-genbank No. AJ242652), followed by selection with neomycin sulfate (G418). Viral replication was monitored by measuring the expression of the NS3 protein by an ELISA assay performed directly on cells grown in 96 wells microtiter plates (Cell-ELISA) using the anti-NS3 monoclonal antibody 10E5/24 (as described in published International application WO 02/59321). Cells were seeded into 96 well plates at a density of 10^4 cells per well in a final volume of 0.1 ml of DMEM/10% FCS. Two hours after plating, 50 μl of DMEM/10% FCS containing a 3× concentration of inhibitor were added, cells were incubated for 96 hours and then fixed for 10 minutes with ice-cold isopropanol. Each condition was tested in duplicate and average absorbance values were used for calculations. The cells were washed twice with PBS, blocked with 5% non-fat dry milk in PBS+0.1% Triton X100+0.02% SDS (PBSTS) and then incubated o/n at 4° C. with the 10E5/24 mab diluted in Milk/PBSTS. After washing 5 times with PBSTS, the cells were incubated for 3 hours at room temperature with Fc specific anti-mouse IgG conjugated to alkaline phosphatase (Sigma), diluted in Milk/PBSTS. After washing again as above, the reaction was developed with p-Nitrophenyl phosphate disodium substrate (Sigma) and the absorbance at 405/620 nm read at intervals. For calculations, we used data sets where samples incubated without inhibitors had absorbance values comprised between 1 and 1.5. The inhibitor concentration that reduced by 50% the expression of NS3 (IC50) was calculated by fitting the data to the Hill equation, Fraction inhibition=1−(Ai−b)/(A0−b)=[I]^n/([I]^n+[…]) where: • Ai=absorbance value of HBI10 cells supplemented with the indicated inhibitor concentration. • A0=absorbance value of HBI10 cells incubated without inhibitor. • b=absorbance value of Huh-7 cells plated at the same density in the same microtiter plates and incubated without inhibitor. • n=Hill coefficient.

Q: How did the IC50 turn out when CN1CCC2COc3ccccc3-c3c([C@H]4CCCC[C@@H]4F)c4ccc(cc4n3C2)C(=O)NS(=O)(=O)N2CCC1CC2 (single isomer, unassigned) [Example 502, 30-[(1R,2S) or (1S,2R)-2-fluorocyclohexyl]-23-methyl-18-oxa-2-thia-1,3,10,23-tetraazahexacyclo[22.2.2.1^5,9.1^8,11.1^10,20.0^12,17]hentriaconta-5(31),6,8,11(30),12,14,16-heptaen-4-one 2,2-dioxide] was run?
A: Its IC50 is 25 to 150 nM.

Q: How did the IC50 turn out when CN1CC2CCN(CC2)S(=O)(=O)NC(=O)c2ccc3c([C@H]4CCCC[C@@H]4F)c4n(c3c2)CC(COc2ccccc2-4)C1 (single isomer, unassigned) [Example 503, 30-[(1R,2S) or (1S,2R)-2-fluorocyclohexyl]-22-methyl-18-oxa-2-thia-1,3,10,22-tetraazahexacyclo[22.2.2.1^5,9.1^8,11.1^10,20.0^12,17]hentriaconta-5(31),6,8,11(30),12,14,16-heptaen-4-one 2,2-dioxide] was run?
A: Its IC50 is 25 to 150 nM.

same assay, conditions: Table 4, various macrocycles; activity ranges; read-out: IC50* (nM), Inhibition of HCV subgenomic replication

Q: CN1CCN(C)C2COc3ccccc3-c3c(C4CCCCC4F)c4ccc(cc4n3C2)C(=O)NS(=O)(=O)N(C)CC1 (single isomer, unassigned) [Example 413, (7R)-14-[(1R,2S) or (1S,2R)-2-fluorocyclohexyl]-18,21,24-trimethyl-7,8-dihydro-6H-7,11-(epiminoethanoiminoethanoiminothioiminomethano)-indolo[1,2-e][1,5]benzoxazocin-15-one 17,17-dioxide] was tested. Which IC50 did it give?
A: The IC50 was < 25 nM.

same assay, conditions: Table 5, various macrocycles; activity ranges; read-out: IC50* (nM), Inhibition of HCV subgenomic replication

Q: With CN1CCCN(C)S(=O)(=O)NC(=O)c2ccc3c(C4CCCCC4F)c4n(c3c2)CC(CC1)COc1ccccc1-4 (single isomer, unassigned) [Example 501, 14-[(1R,2S) or (1S,2R)-2-fluorocyclohexyl]-18,22-dimethyl-7,8-dihydro-6H-7,11-(ethanoiminopropanoiminothioiminomethano)indolo[1,2-e][1,5]benzoxazocin-15-one 17,17-dioxide] as the molecule, how does the IC50 read?
A: Its IC50 is 25 to 150 nM.

Q: Which IC50 does the source give for CN1CCCN(CCN2CCCC2)S(=O)(=O)NC(=O)c2ccc3c(C4CCCCC4)c4n(c3c2)CC(CC1)COc1ccccc1-4 (single isomer, unassigned) [Example 505, (7R) or (7S)-14-cyclohexyl-22-methyl-18-(2-pyrrolidin-1-ylethyl)-7,8-dihydro-6H-7,11-(ethanoiminopropanoiminothioiminomethano)indolo[1,2-e][1,5]benzoxazocin-15-one 17,17-dioxide] here?
A: Its IC50 is 25 to 150 nM.

Q: With CC(C)N1CCCN(C)S(=O)(=O)NC(=O)c2ccc3c(C4CCCCC4)c4n(c3c2)CC(CC1)COc1ccccc1-4 (single isomer, unassigned) [Example 506, (7R) or (7S)-14-cyclohexyl-22-isopropyl-18-methyl-7,8-dihydro-6H-7,11-(ethanoiminopropanoiminothioiminomethano)indolo[1,2-e][1,5]benzoxazocin-15-one 17,17-dioxide] as the molecule, how does the IC50 read?
A: The IC50 was < 25 nM.

Q: For CN1CCCN(CCO)CCC2COc3ccccc3-c3c(C4CCCCC4)c4ccc(cc4n3C2)C(=O)NS1(=O)=O (single isomer, unassigned) [Example 507, (7R) or (7S)-14-cyclohexyl-22-(2-hydroxyethyl)-18-methyl-7,8-dihydro-6H-7,11-(ethanoiminopropanoiminothioiminomethano)indolo[1,2-e][1,5]benzoxazocin-15-one 17,17-dioxide], which IC50 is on record?
A: Its IC50 is < 25 nM.

same assay, conditions: Table A; activity ranges; Huh-7 replicon cells, 96 hours; read-out: IC50 (nM), Inhibition of HCV subgenomic replication

Q: Which IC50 does the source give for CN1CCCCN(C)S(=O)(=O)NC(=O)c2ccc3c(C4CCCCC4F)c4n(c3c2)CC(COc2ccccc2-4)C1 (single isomer, unassigned) [Compound A16, (7R,S)-14-[(1R,2S) or (1S,2R)-2-fluorocyclohexyl]-18,23-dimethyl-7,8-dihydro-6H-11,7-(methanoiminothioiminobutanoiminomethano)indolo[1,2-e][1,5]benzoxazocin-15-one 17,17-dioxide] here?
A: The IC50 was 25 to 150 nM.

Q: Which IC50 does the source give for COc1ccc2c(c1)OCC1CCN(C)CCCN(C)S(=O)(=O)NC(=O)c3ccc4c(C5CCCCC5F)c-2n(c4c3)C1 (single isomer, unassigned) [Compound A38, 14-[(1R,2S) or (1S,2R)-2-fluorocyclohexyl]-3-methoxy-18,22-dimethyl-7,8-dihydro-6H-7,11-(ethanoiminopropanoiminothioiminomethano)indolo[1,2-e][1,5]benzoxazocin-15-one 17,17-dioxide] here?
A: The IC50 was < 25 nM.

Q: How did the IC50 turn out when CN1CCOCC2COc3ccccc3-c3c(C4CCCCC4)c4ccc(cc4n3C2)C(=O)NS(=O)(=O)N(C)CC1 (single isomer, unassigned) [Compound A39, (7R or 7S)-14-cyclohexyl-18,21-dimethyl-7,8-dihydro-6H-7,11-(methanooxyethanoiminoethanoiminothioiminomethano)indolo[1,2-e][1,5]benzoxazocin-15-one 17,17-dioxide] was run?
A: The IC50 was < 25 nM.

Q: Which IC50 does the source give for CN1CCCC2COc3ccccc3-c3c(C4CCCCC4F)c4ccc(cc4n3C2)C(=O)NS(=O)(=O)N(C)CC1 (single isomer, unassigned) [Compound A40, (7R)-14-[(1R,2S) or (1S,2R)-2-fluorocyclohexyl]-18,21-dimethyl-7,8-dihydro-6H-7,11-(propanoiminoethanoiminothioiminomethano)indolo[1,2-e][1,5]benzoxazocin-15-one 17,17-dioxide] here?
A: The IC50 was < 25 nM.

Q: Which IC50 does the source give for CN1CCCN(C)S(=O)(=O)NC(=O)c2ccc3c(C4CCCCC4)c4n(c3c2)CC(CC1)COc1ccccc1-4 (single isomer, unassigned; (+)) [Compound A13, (+)-14-cyclohexyl-18,22-dimethyl-7,8-dihydro-6H-7,11-(ethanoiminopropanoiminothioiminomethano)indolo[1,2-e][1,5]benzoxazocin-15-one 17,17-dioxide] here?
A: Its IC50 is 25 to 150 nM.

Q: With COc1ccc2c(c1)OCC1CCCN(C)CCN(C)S(=O)(=O)NC(=O)c3ccc4c(C5CCCCC5)c-2n(c4c3)C1 (single isomer, unassigned; (+)) [Compound A36, (+)-14-cyclohexyl-3-methoxy-18,21-dimethyl-7,8-dihydro-6H-7,11-(propanoiminoethanoiminothioiminomethano)indolo[1,2-e][1,5]benzoxazocin-15-one 17,17-dioxide] as the molecule, how does the IC50 read?
A: The IC50 was 25 to 150 nM.

Q: CN1CCCN(C)S(=O)(=O)NC(=O)c2ccc3c(C4CCCCC4)c4n(c3c2)CC(CC1)COc1ccccc1-4 (single isomer, unassigned; (-)) [Compound A14, (−)-14-cyclohexyl-18,22-dimethyl-7,8-dihydro-6H-7,11-(ethanoiminopropanoiminothioiminomethano)indolo[1,2-e][1,5]benzoxazocin-15-one 17,17-dioxide] was tested. Which IC50 did it give?
A: The IC50 was < 25 nM.

Q: Which IC50 does the source give for COc1ccc2c(c1)OCC1CCN(C)CCCN(C)S(=O)(=O)NC(=O)c3ccc4c(C5CCCCC5)c-2n(c4c3)C1 (single isomer, unassigned; (-)) [Compound A35, (−)-14-cyclohexyl-3-methoxy-18,22-dimethyl-7,8-dihydro-6H-7,11-(ethanoiminopropanoiminothioiminomethano)indolo[1,2-e][1,5]benzoxazocin-15-one 17,17-dioxide] here?
A: Its IC50 is < 25 nM.

Q: COc1ccc2c(c1)OCC1CCCN(C)CCN(C)S(=O)(=O)NC(=O)c3ccc4c(C5CCCCC5)c-2n(c4c3)C1 (single isomer, unassigned; (-)) [Compound A37, (−)-14-cyclohexyl-3-methoxy-18,21-dimethyl-7,8-dihydro-6H-7,11-(propanoiminoethanoiminothioiminomethano)indolo[1,2-e][1,5]benzoxazocin-15-one 17,17-dioxide] was tested. Which IC50 did it give?
A: Its IC50 is < 25 nM.

Q: For CN1CCNCCN(C)S(=O)(=O)NC(=O)c2ccc3c(C4CCCCC4)c4n(c3c2)CC1COc1ccccc1-4 [Compound A1, (7R)-14-cyclohexyl-18,24-dimethyl-7,8-dihydro-6H-7,11-(epiminoethanoiminoethanoiminothioiminomethano)indolo[1,2-e][1,5]benzoxazocin-15-one 17,17-dioxide], which IC50 is on record?
A: The IC50 was < 25 nM.

Q: How did the IC50 turn out when CN1CCN(C)C2COc3ccccc3-c3c(C4CCCCC4)c4ccc(cc4n3C2)C(=O)NS(=O)(=O)N(C)CC1 [Compound A2, (7R)-14-cyclohexyl-18,21,24-trimethyl-7,8-dihydro-6H-7,11-(epiminoethanoiminoethanoiminothioiminomethano)indolo[1,2-e][1,5]benzoxazocin-15-one 17,17-dioxide] was run?
A: The IC50 was < 25 nM.

Q: With CCN1CCN(C)C2COc3ccccc3-c3c(C4CCCCC4)c4ccc(cc4n3C2)C(=O)NS(=O)(=O)N(C)CC1 [Compound A3, (7R)-14-cyclohexyl-21-ethyl-18,24-dimethyl-7,8-dihydro-6H-7,11-(epiminoethanoiminoethanoiminothioiminomethano)indolo[1,2-e][1,5]benzoxazocin-15-one 17,17-dioxide] as the molecule, how does the IC50 read?
A: Its IC50 is < 25 nM.
